# Assays:
# Assay type in all cases: biochemical
# MeHNL [1] = target: T1, MeHNL (Manihot esculenta, UniProt P52705); assay: benzaldehyde release, A280; settings: 50 mM citrate pH 5.0
# HbHNL [2] = target: T2, HbHNL (Hevea brasiliensis, UniProt P52704); assay: benzaldehyde release, A280; settings: 50 mM citrate pH 5.0
# HbHNL [3] = target: T2, HbHNL; settings: 5 mM citrate phosphate pH 5
# MeHNL [4] = target: T1, MeHNL; settings: 5 mM citrate phosphate pH 5
# T1 sequence (P52705 2-258): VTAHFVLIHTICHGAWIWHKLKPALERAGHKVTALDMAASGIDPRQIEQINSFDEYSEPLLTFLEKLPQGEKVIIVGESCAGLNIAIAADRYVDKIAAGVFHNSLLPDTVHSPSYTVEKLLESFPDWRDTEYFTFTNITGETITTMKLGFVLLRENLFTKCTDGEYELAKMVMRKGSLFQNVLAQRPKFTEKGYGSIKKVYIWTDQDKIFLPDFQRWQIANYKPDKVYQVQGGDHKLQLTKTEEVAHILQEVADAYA
# T2 sequence (P52704 whole entry): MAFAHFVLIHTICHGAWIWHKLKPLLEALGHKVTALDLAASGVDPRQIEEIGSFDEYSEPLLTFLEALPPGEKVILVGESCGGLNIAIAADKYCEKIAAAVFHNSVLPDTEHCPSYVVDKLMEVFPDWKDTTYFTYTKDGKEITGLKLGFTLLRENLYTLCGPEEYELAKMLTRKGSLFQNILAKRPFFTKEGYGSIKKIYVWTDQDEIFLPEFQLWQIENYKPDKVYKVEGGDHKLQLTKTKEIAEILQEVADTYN
SMILES,"benzaldehyde release, A280 (MeHNL [1])","benzaldehyde release, A280 (HbHNL [2])","HCN release, modified König reaction (HbHNL [3])","HCN release, modified König reaction (MeHNL [4])"
N#CC(O)c1ccccc1 (racemic) [mandelonitrile],They also efficiently cleaved their unnatural substrate mandelonitrile,They also efficiently cleaved their unnatural substrate mandelonitrile,–,–
CC(C)(O)C#N [acetone cyanohydrin],–,–,"The best substrate is the natural one, acetone cyanohydrin","The best substrate is the natural one, acetone cyanohydrin"
